Here are results for 63 compounds from PubChem BioAssay AID2305 (GlaxoSmithKline (GSK), 2010).

“And” between values parts separate entries of the source, which are not always exact repeats. Identical values can stand only once.

For the assay, the system named is P. falciparum 3D7 growth, pLDH absorbance. The assay can be described thus: blood-stage malaria parasite growth potency – strain 3D7, dose response (AID 2305).
In general, IC50 refers to the point on the concentration scale where inhibition reaches its midpoint. As to `COc1cc(Nc2ccnc3ccc(C(F)(F)F)cc23)cc(OC)c1OC`, the half-maximal inhibitory concentration (IC50) stood at 700 nM. The figure for `C[C@]12CC3CC(Nc4nc(N5CCOCC5)nc5ccccc45)(C1)C[C@@](C)(C3)C2` is 940 nM; for `Cc1ccc(NC(=O)c2cn(-c3ccccc3)nc2-c2ccc(F)cc2)cc1[N+](=O)[O-]` it is 1000 nM. For `CC(C)N1CCC(N(Cc2ccc(-c3ccc(C(F)(F)F)cc3)cc2)C(=O)Cn2c(CCc3cccc(F)c3F)cc(=O)c3c2CCC3)CC1`, the 50% inhibitory concentration (IC50) came to 620 nM. The compound `CC(Oc1ccc(Cl)cc1Cl)c1nc(-c2ccc(NC(=O)c3ccco3)cc2)no1` (stereo not drawn) showed an IC50 of 900 nM. With `O=C(Cc1cccs1)NCC(c1ccccc1Cl)c1c[nH]c2ccccc12` (stereo not drawn) the figure was 1150 nM; with `CS(=O)(=O)NCCCNCc1cccc(-c2csc(-c3nc4ccccc4[nH]3)c2)c1`, 1010 nM. Regarding `COC(=O)c1ccccc1N1CCN(CCCCNC(=O)c2ccc(NC(=O)c3cc(Cl)cc(Cl)c3)cc2)CC1`, the concentration for half-maximal inhibition (IC50) was 560 nM. Consider `COc1ccc(CNCCCCCCCNCc2ccc(Cl)c(Cl)c2)cc1Cl`, for which the IC50 worked out at 1220 nM. With `Cc1noc(-c2ccccc2)c1CN1CCCC2(CC(C(=O)NCc3cccc(F)c3F)=NO2)C1` (stereo not drawn) the figure was 1010 nM. With `COc1ccc2c(=O)ccn(CCN3CCC(NCc4ccc5c(n4)NC(=O)CS5)CC3)c2c1`, the half-maximal inhibitory concentration (IC50) came to 230 nM.

In the case of `O=C(/C=C/c1ccccc1Cl)NC1CCC(CN2[C@@H]3CC[C@H]2CC(c2c[nH]c4ccccc24)C3)CC1` (stereo partly drawn), the IC50 was determined as 710 nM. In turn, `CNc1ccc(CNCc2ccc(-c3ccc(-c4nc5c(C)cccc5[nH]4)cc3)cc2)cc1` gave an IC50 of 320 nM. Consider `Fc1ccc2ncc(Cl)c(CCN3CCC(NCc4cc5c(cn4)OCCO5)CC3)c2c1`, for which the IC50 was determined as 880 nM. As to `FC(F)(F)c1cccc(CNC2CCN(CC3CCCCC3)CC2)c1`, the 50% inhibitory concentration (IC50) was 580 nM. The figure for `O=C(N[C@H]1CCN(CCc2ccc(O[C@H]3CCNC3)c(Br)c2)C1)c1ccc(Cl)c(Cl)c1` is 660 nM; for `Cc1ccoc1C(=O)Nc1cccc(-c2cccc(-c3nc4c(C)cccc4[nH]3)c2)c1` it is 670 nM. In the case of `Cc1cccc2[nH]c(-c3ccc(-c4ccc(CN5CCC(C(N)=O)CC5)cc4)cc3)nc12`, the concentration for half-maximal inhibition (IC50) came to 930 nM. On to `CCCc1cc(N2CCC(N3CCCC3)CC2)nc(Nc2ccc(OC)cc2)n1`, for which the IC50 turned out to be 810 nM. Take `O=C(Nc1cccc(C(F)(F)F)c1)NC1CCN(c2ccnc3cc(Cl)ccc23)CC1`: the half-maximal inhibitory concentration (IC50) is 290 nM. With `C[C@@H]1CN(CCCn2c3ccccc3c3ccc(C(=O)CCCN(C)C)cc32)C[C@H](C)N1` the figure was 810 nM; with `COc1cc(OC)cc(-c2nnc(Sc3ccc(C#N)c([N+](=O)[O-])c3)n2C)c1`, 940 nM.

The compound `COc1cc(-c2nc(C(C)(C)CN)[nH]c2-c2ccncc2)ccc1Br` displayed an IC50 of 770 nM. `CN1CC(c2ccc(Cl)c(Cl)c2)OC1=N` (stereo not drawn) displayed an IC50 of 280 nM.

Take `CCOC(=O)c1ccc(NC(=O)c2ccccc2C(=O)O)cc1`: the IC50 turned out to be 920 nM. The figure for `FC(F)(F)c1cc(C(F)(F)F)c2cc(CNCCCNc3nc4ccccc4[nH]3)[nH]c2c1` is 140 nM. With `O=C(Nc1ccc(S(=O)(=O)N2CCCC2)cc1)c1cc(-c2cccnc2)nc2ccc(Cl)cc12` the figure was 300 nM; with `CC(C)Cc1csc(NC(=O)C=Cc2ccco2)c1C(=O)O`, 300 nM; with `Cc1cc(=O)c(-c2ccc(OCCSc3ccc(C(F)(F)F)cn3)cc2)c(C)[nH]1`, 530 nM.

For `O=C(NCc1ccc(F)cc1)c1cnc(N2CCN(c3ccncc3)CC2)c(Cl)c1`, the 50% inhibitory concentration (IC50) stood at 1390 nM. With `CC(C)(C)[C@@H](Nc1ccc(C#N)c2ccccc12)C(=O)NC1(Cc2ccc(O)cc2)CCCC1` the figure was 1440 nM; with `NC1CCN(Cc2cccc(-c3ccc(-c4nc5ccc(F)cc5[nH]4)cc3)c2)C1` (stereo not drawn), 600 nM; with `COc1ccc(C2CC(c3cccs3)=NN2C(=O)c2ccco2)cc1OC` (stereo not drawn), 170 nM. With `COc1ccc2nc(C)cc(NN=Cc3ccccc3)c2c1` the figure was 1030 nM. The figure for `CCN(CC)CCOc1ccc(N(Cc2ccc(C(C)(C)C)cc2)C(=O)c2ccc(Cc3ccccc3)cc2)cc1OC` is 770 nM; for `Cc1nc2ccc3ccc(CNc4ccc(C(=O)CC(CCC(=O)O)C(=O)O)cc4)cc3c2c(=O)[nH]1` (stereo not drawn) it is 40 nM. In turn, `CN1CCN(c2ccnc3ccc(NC(=O)Nc4ccc(Br)cc4)cc23)CC1` displayed an IC50 of 90 nM. The compound `O=C(C1COc2ccccc2O1)N(CCCn1ccnc1)Cc1csc(-c2ccc(CNCc3ccccc3)cc2)n1` (stereo not drawn) displayed a 50% inhibitory concentration (IC50) of 620 nM. With `CC(C)C[C@H](NC(=O)c1cc2ccccc2s1)C(=O)N[C@H]1CCN(Cc2ccc(I)c(OCCN3CCCC3)c2)C1` the figure was 1350 nM. With `CC(C)(CN)c1nc(-c2ccc(Br)c(O)c2)c(-c2ccncc2)[nH]1` the figure was 970 nM. On to `CC1(C)CN2CCCC2c2cc(NC(=O)/C=C/c3ccccc3Cl)ccc21` (stereo not drawn), for which the half-maximal inhibitory concentration (IC50) was determined as 990 nM. As for `COc1ccc2nccc([C@@H](O)CN3CCC(NC(=O)C(c4ccsc4)N4CCN(c5ccccc5OC)CC4)CC3)c2c1` (stereo partly drawn), the IC50 turned out to be 830 nM. `O=C(Nc1cccc2ccccc12)N1CCC(NS(=O)(=O)c2cccc(C(F)(F)F)c2)CC1` had an IC50 of 910 nM. In the case of `COc1ccc(NC(=O)/C=C/c2ccccc2Cl)cc1OCCN1CCN(c2ccncc2)CC1`, the IC50 came to 730 nM. The figure for `COc1ccc(Br)cc1/C=C/C(=O)Nc1ccc(C2CCN(C)CC2)cc1` is 500 nM.

Regarding `O=C(Nc1ccc(OC2CCN(Cc3ccc(F)cc3)C2)c(Cl)c1)c1cccs1` (stereo not drawn), the IC50 came to 130 nM.

Take `Clc1ccc(OCc2ccccc2)c(-c2nc(-c3nc4ncc(Br)cc4[nH]3)cs2)c1`: the half-maximal inhibitory concentration (IC50) was 210 nM. The figure for `CC(=O)Nc1ccc(Nc2cc(C)nc(Nc3ccc(NC(C)=O)cc3)n2)cc1` is 890 nM; for `CC(Cc1ccc(NC(=O)c2ccc(NCCc3ccccc3)cc2)cc1)NCCc1cccc(Cl)c1` (stereo not drawn) it is 850 nM; for `COC(=O)c1cccc(CNCc2ccc(-c3ccc(-c4nc5ccc(F)cc5[nH]4)s3)cc2)c1` it is 590 nM. As to `CN(C)CCN(C)Cc1ccc(-c2ccc3c(Nc4ccc(Oc5ccccn5)cc4)ccnc3c2)o1`, the IC50 is 420 nM.

The compound `O[C@@H](c1ccccc1)[C@@H]1CN(CCc2ccccc2)CC[C@@]1(O)c1ccccc1` gave an IC50 of 1040 nM. The figure for `CC1(C)N=C(N)NC(NOCC=Cc2ccccc2)=N1` is 230 nM; for `CCc1ccc(S(=O)(=O)Nc2ccc(CCN(C)C3CCN(C)CC3)cc2)cc1` it is 1060 nM. The figure for `Cc1cc(C)c2[nH]cc(C(=O)O)c(=O)c2c1` is 880 nM; for `CCCCNCc1ccc(-c2nc(CN(CCCn3ccnc3)C(=O)Nc3ccc(CC)cc3)cs2)cc1` it is 830 nM.

On to `CCOc1ccc2nccc([C@@H](O)[C@@H]3C[C@@H]4CCN3C[C@@H]4CC)c2c1`, for which the half-inhibitory concentration (IC50) was 110 nM and 610 nM.

As for `Cc1cccc2[nH]c(-c3ccc(-c4cccc(CNCc5ccccc5)c4)cc3)nc12`, the half-maximal inhibitory concentration (IC50) is 250 nM.

`N#Cc1c(N)nc(SCC(=O)Nc2cc(C(F)(F)F)ccc2Cl)c(C#N)c1-c1cccs1` displayed a half-maximal inhibitory concentration (IC50) of 740 nM. With `CCCC(C)C(=O)N1CCOC(COCc2cccc(C(F)(F)F)c2)(c2ccc(Cl)cc2)C1` (stereo not drawn) the figure was 400 nM; with `COc1ccc(C[C@H]2NC[C@H](O)[C@H]2OC(C)=O)cc1`, 140 nM. The compound `N#Cc1ccc(CCNc2nccc(-c3cccc(CN4CCNCC4)c3)n2)cc1` yielded an IC50 of 1250 nM. In turn, `Ic1cc(CNC2CCCCC2)ccc1OCc1cccc(COc2ccc(CNC3CCCCC3)cc2I)c1` yielded a concentration for half-maximal inhibition (IC50) of 830 nM.
